According to PubChem BioAssay (NCI):
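Results reflect a 48-hour exposure of cells in 96-well plates to compound at five concentrations. GI50 is the concentration that inhibits growth by half. TGI marks complete inhibition of growth.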

Experiments:
Assay in all cases: inhibition of tumour cell growth, NCI panel, 48 h
HOP-62 NSCLC = test system: HOP-62 NSCLC
HL-60(TB) leukemia = test system: HL-60(TB) leukemia
CAKI-1 renal = test system: CAKI-1 renal
HCT-116 colon = test system: HCT-116 colon
MOLT-4 leukemia = test system: MOLT-4 leukemia
CCRF-CEM leukemia = test system: CCRF-CEM leukemia
786-0 renal = test system: 786-0 renal
SW-620 colon = test system: SW-620 colon
HT29 colon = test system: HT29 colon
SK-MEL-2 melanoma = test system: SK-MEL-2 melanoma

| Compound | TGI (HOP-62 NSCLC) | TGI (HL-60(TB) leukemia) | TGI (CAKI-1 renal) | TGI (HCT-116 colon) | TGI (MOLT-4 leukemia) | TGI (CCRF-CEM leukemia) | TGI (786-0 renal) | TGI (SW-620 colon) | TGI (HT29 colon) | TGI (SK-MEL-2 melanoma) | GI50 (HOP-62 NSCLC) | GI50 (HL-60(TB) leukemia) | GI50 (CAKI-1 renal) | GI50 (HCT-116 colon) | GI50 (SK-MEL-2 melanoma) | GI50 (786-0 renal) | GI50 (SW-620 colon) | GI50 (MOLT-4 leukemia) | GI50 (CCRF-CEM leukemia) | GI50 (HT29 colon) |
| --- | --- | --- | --- | --- | --- | --- | --- | --- | --- | --- | --- | --- | --- | --- | --- | --- | --- | --- | --- | --- |
| CCOC(=O)c1cc2cc([N+](=O)[O-])ccc2oc1=O | > 100 µM | > 100 µM | > 100 µM | > 100 µM | > 100 µM | > 100 µM | > 100 µM | > 100 µM | > 100 µM |  |  |  |  |  |  |  |  |  |  |  |
| COc1ccccc1OCC(COC(=O)Nc1ccc(C)cc1)OC(=O)Nc1ccc(C)cc1 (stereo not given) | > 100 µM | 37.4 µM | 34.3 µM | 31.3 µM | 48.8 µM | 45.3 µM | 44 µM | 28.1 µM | 38.3 µM | 31.4 µM |  |  |  |  |  |  |  |  |  |  |
| CN(C)c1ccc(/C=N/Nc2ccc(-c3nc4ccccc4[nH]3)cc2)cc1 | > 50 µM | > 50 µM | > 50 µM | > 50 µM |  |  | 38.6 µM | > 50 µM |  | 26.4 µM | 20.8 µM | 14.6 µM | 5 µM | 15.1 µM | 8.27 µM | 10.6 µM | 18.9 µM |  |  |  |
| N#CC(C#N)=C/C=C/c1cccc([N+](=O)[O-])c1 | 6.39 µM | 5.38 µM | 4 µM | 1.1 µM | 13.6 µM | 15.2 µM | 3.17 µM | 2.57 µM |  |  | 1.81 µM | 0.345 µM | 0.457 µM | 0.277 µM |  | 1.51 µM | 0.914 µM | 0.391 µM | 0.556 µM |  |
| C=C1C(=O)C23C(CC(OC(C)=O)C1[C@@H]2OC(C)=O)C1(C)C(OC(C)=O)CCC(C)(C)C1C[C@@H]3OC(C)=O (stereo not given in full) | 7.98 µM | 2.51 µM | 1.94 µM | 2.97 µM |  |  | 2.73 µM | 2.75 µM | 2.22 µM | 3.37 µM |  |  |  |  |  |  |  |  |  |  |
| COc1ccccc1OCC(O)CO (stereo not given) | > 100 µM | > 100 µM | > 100 µM | > 100 µM | > 100 µM |  | > 100 µM | > 100 µM | > 100 µM | > 100 µM | > 100 µM | > 100 µM | > 100 µM | > 100 µM | > 100 µM | > 100 µM | > 100 µM | > 100 µM |  | > 100 µM |
| C=C(C)[C@@H]1CC[C@]2(C#N)CC[C@]3(C)[C@H](CC[C@@H]4[C@@]5(C)CCCNC(C)(C)[C@@H]5CC[C@]43C)[C@@H]12 | 3.29 µM |  | 11.5 µM | 3.19 µM | 5.57 µM | 9.38 µM | 3.07 µM | 3.42 µM | 3.1 µM | 3.94 µM | 1.65 µM |  | 3.2 µM | 1.75 µM | 2.1 µM | 1.69 µM | 1.77 µM | 2.14 µM | 2.73 µM | 1.64 µM |
| O=C(O)c1oc2ccc([N+](=O)[O-])c3c2c1CCC3 | > 100 µM | > 100 µM | > 100 µM | > 100 µM |  |  | > 100 µM | > 100 µM | > 100 µM | > 100 µM |  |  |  |  |  |  |  |  |  |  |
| C[P+](C)(CC(F)(F)F)c1ccccc1 | > 100 µM | > 100 µM |  | > 100 µM | > 100 µM | > 100 µM | > 100 µM | > 100 µM | > 100 µM | > 100 µM |  |  |  |  |  |  |  |  |  |  |
| C[Si](C)(C)[C@@]1([Se]c2ccccc2)CC[C@@H]1C(=O)c1ccccc1 | > 100 µM |  | > 100 µM | > 100 µM | 75.1 µM | > 100 µM | > 100 µM | > 100 µM | > 100 µM | > 100 µM |  |  |  |  |  |  |  |  |  |  |
| C=C1C(=O)O[C@H]2[C@H](OC(C)=O)[C@@H](C)CCC/C(C)=C/CC[C@]3(CO3)[C@H](O)C[C@@H]12 |  | 5.63 µM | 4.51 µM |  | 5.82 µM | 4.77 µM | 14.1 µM | 10.7 µM | 11.5 µM | 31.9 µM |  | 2.31 µM | 1.91 µM |  | 14.8 µM | 3.65 µM | 3.24 µM | 2.28 µM | 1.87 µM | 3.23 µM |
| ClCc1ccc(Cn2cnc3ncnc(Cl)c32)cc1 | 3.16 µM |  | 4.42 µM |  |  |  | 3.05 µM | 7.18 µM | 3.59 µM | > 100 µM | 1.78 µM |  | 2.01 µM |  | 6.3 µM | 1.68 µM | 2.58 µM |  |  | 1.22 µM |
| COc1ccc(-c2nc(N)nc(-c3cc(C)ccc3O)c2Cl)cc1 | > 100 µM | > 100 µM | > 100 µM | > 100 µM | > 100 µM | > 100 µM | > 100 µM | > 100 µM | > 100 µM |  |  |  |  |  |  |  |  |  |  |  |
| COc1ccc2c(c1)[n+]([O-])c(-c1ccc(Cl)c(Cl)c1)c(N)[n+]2[O-] | > 100 µM | 61 µM | > 100 µM | > 100 µM | > 100 µM |  | > 100 µM | > 100 µM | > 100 µM | > 100 µM |  |  |  |  |  |  |  |  |  |  |
| Cc1nc(Nc2ccc([N+](=O)[O-])cc2)sc1C(=O)/C=C/c1ccc(N(C)C)cc1 | > 100 µM | > 100 µM | > 100 µM |  | > 100 µM | > 100 µM | > 100 µM | > 100 µM | > 100 µM | > 100 µM |  |  |  |  |  |  |  |  |  |  |
| O=C(O)CNS(=O)(=O)c1ccc(NC(=O)c2cccc([N+](=O)[O-])c2)cc1 |  | > 100 µM | > 100 µM |  | > 100 µM | > 100 µM | > 100 µM | > 100 µM | > 100 µM | > 100 µM |  |  |  |  |  |  |  |  |  |  |
| CN(C)/C(=N/C(=O)Nc1ccccc1)SCc1ccccc1 | > 100 µM | > 100 µM | > 100 µM |  | > 100 µM | > 100 µM | > 100 µM | > 100 µM | > 100 µM | > 100 µM |  |  |  |  |  |  |  |  |  |  |
| COCCn1cc(-c2csc(-c3c[nH]c4ccc(F)cc34)n2)c2cccnc21 | > 100 µM |  | > 100 µM | > 100 µM | > 100 µM |  | > 100 µM | > 100 µM | > 100 µM | > 100 µM | 2.02 µM |  | 9.54 µM | 3.77 µM | 3.89 µM | 5.12 µM | 3.63 µM | 5.56 µM |  | 2.9 µM |
| N#CCc1nc2c(s1)C(=O)c1ccccc1C2=O | 28.3 µM |  | 38.6 µM | 27.6 µM | 3.48 µM |  | 30.1 µM | 34.8 µM | 46.5 µM | 35.6 µM |  |  |  |  |  |  |  |  |  |  |
